This note sets out measurements from ChEMBL document CHEMBL1136799, “Design and synthesis of pyrrolidine-5,5'-trans-lactams (5-oxo-hexahydropyrrolo[3,2-b]pyrroles) as novel mechanism-based inhibitors of human cytomegalovirus protease. 4. Antiviral activity and plasma stability” (J Med Chem, 2003).

Usually pKi stands for the negative decadic logarithm of the Ki, by convention in mol/L. Usually pIC50 stands for −log10 of the IC50, conventionally taken in molar units. A lower pIC50 goes with a high IC50. One may read the half-life as the time in which the quantity being followed falls by half. Lower therefore signals rapid decline.

Series [1] concerns the target T1, Capsid scaffolding protein (Human cytomegalovirus (strain AD169) (HHV-5) (Human herpesvirus 5), UniProt P16753).
T1 sequence (P16753 whole entry): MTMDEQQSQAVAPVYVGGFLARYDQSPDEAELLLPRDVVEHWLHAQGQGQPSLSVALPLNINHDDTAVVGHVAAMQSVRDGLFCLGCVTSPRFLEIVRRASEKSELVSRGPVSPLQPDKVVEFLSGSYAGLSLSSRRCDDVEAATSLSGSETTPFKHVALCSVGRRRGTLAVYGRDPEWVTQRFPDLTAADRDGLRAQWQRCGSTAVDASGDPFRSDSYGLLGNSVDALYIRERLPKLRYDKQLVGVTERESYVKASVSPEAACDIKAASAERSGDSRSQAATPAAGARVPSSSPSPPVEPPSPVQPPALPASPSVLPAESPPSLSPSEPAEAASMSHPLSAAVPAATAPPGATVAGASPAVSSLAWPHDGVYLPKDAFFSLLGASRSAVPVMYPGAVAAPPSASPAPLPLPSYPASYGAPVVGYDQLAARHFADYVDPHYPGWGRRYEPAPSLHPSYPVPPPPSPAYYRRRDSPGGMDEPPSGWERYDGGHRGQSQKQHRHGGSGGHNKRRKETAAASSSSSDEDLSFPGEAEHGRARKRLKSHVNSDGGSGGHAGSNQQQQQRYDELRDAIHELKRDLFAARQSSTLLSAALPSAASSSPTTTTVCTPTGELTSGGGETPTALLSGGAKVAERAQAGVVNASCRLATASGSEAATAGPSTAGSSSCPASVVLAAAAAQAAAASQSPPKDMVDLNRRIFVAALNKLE
Put plainly: Potency against human cytomegalovirus protease in HCMV pNA assay. Set-up: species or system Human herpesvirus 5 strain AD169.

In series [2] the target is T1, Capsid scaffolding protein. The experiment in a line: Inhibition of human cytomegalovirus protease in HCMV pNA assay. Set-up: species or system Human herpesvirus 5 strain AD169.
The test system of the next series is Human betaherpesvirus 5. Put plainly: Concentration required to inhibit human cytomegalovirus HCMV-AD169 in antiviralplaque reduction assay. It is filed as functional, organism-based. In general terms: In a plaque reduction assay, fewer plaques than in the control indicate reduced infectivity or spread.
A further series relates to Vero. The experiment in a line: Growth inhibition of cytomegalovirus in Vero cells. It is filed as functional, Human betaherpesvirus 5.
Series [3] in a line: Compound was tested for its stability in human plasma. It is filed as ADME, organism-based.

pIC50, pKi: −log10 of the molar value. A value given as a limit tells only on which side of the number the result lay.

In series [1], `Cc1c(C(=O)N2CCC[C@H]2C(=O)N2CC[C@H]3[C@H]2[C@H](C)C(=O)N3C(=O)C2CC2)sc2ccc(Cl)cc12` had a pKi of 8.70. The compound also had a pIC50 in series [2] of 6.72.

In series [2], `C[C@@H]1C(=O)N(C(=O)C2CC2)[C@H]2CCN(C(=O)[C@@H]3CCCN3S(=O)(=O)c3cccc4cc(N(C)C)ccc34)[C@H]12` had a pIC50 of 5.96.

`Nc1nc2c(ncn2COC(CO)CO)c(=O)[nH]1` [GANCICLOVIR]: the pIC50 in the series on Human betaherpesvirus 5 was 6.14. The CCID50 in the series with Vero is more than 500 µM.

`CCCOc1ccc(NC(=O)N2CCC[C@H]2C(=O)N2CC[C@H]3[C@H]2[C@H](C)C(=O)N3C(=O)C2CC2)cc1` had a pKi in series [1] of 8.05. For the same compound, the pIC50 in series [2] is 6.68.

With `C[C@@H]1C(=O)N(C(=O)C2CC2)[C@H]2CCN(C(=O)[C@@H]3CCCN3C(=O)c3cccc4ccccc34)[C@H]12`, the pIC50 in series [2] was 6.05.

As for `CC(C)c1ccc(NC(=O)N2CCC[C@H]2C(=O)N2CC[C@H]3[C@H]2[C@H](C)C(=O)N3c2nc3ccc(F)cc3s2)cc1`, the pIC50 with Human betaherpesvirus 5 is 4.91; in series [2], 6.44. Moreover, in series [3], the half-life was more than 24 h. In the series with Vero, this compound showed a CCID50 of 298 µM.

In series [1], `CC(C)Oc1ccc(S(=O)(=O)N2CCC[C@H]2C(=O)N2CC[C@H]3[C@H]2[C@H](C)C(=O)N3C(=O)C2CC2)cc1` showed a pKi of 7.41. The pIC50 in series [2] was 6.40.

`C[C@@H]1C(=O)N(C(=O)C2CC2)[C@H]2CCN(C(=O)[C@@H]3CCCN3C(=O)Nc3cccc(Cl)c3)[C@H]12` showed a pIC50 in series [2] of 6.19.

Regarding `COc1ccc2sc(N3C(=O)[C@@H](C)[C@@H]4[C@@H]3CCN4C(=O)[C@@H]3CCCN3C(=O)Nc3ccc(C(C)C)cc3)nc2c1`, the pIC50 with Human betaherpesvirus 5 was 5.62; in series [2], 6.64. This compound came in with a CCID50 in the series with Vero of more than 500 µM.

Consider `C[C@@H]1C(=O)N(C(=O)C2CC2)[C@H]2CCN(C(=O)[C@@H]3CCCN3C(=O)c3ccc(Cl)cc3)[C@H]12`, for which the pIC50 in series [2] was 5.85.

`COc1cccc2sc(N3C(=O)[C@@H](C)[C@@H]4[C@@H]3CCN4C(=O)[C@@H]3CCCN3C(=O)Nc3ccc(C(C)C)cc3)nc12`: the pIC50 in the series with Human betaherpesvirus 5 is 5.28; in series [2], 6.62. Besides, the CCID50 in the series on Vero stood at 89 µM.

Take `CC(C)c1ccc(NC(=O)N2CCC[C@H]2C(=O)N2CC[C@H]3[C@H]2[C@H](C)C(=O)N3c2nc3c(Cl)cccc3s2)cc1`: the values for the pIC50 (in the series on Human betaherpesvirus 5; in series [2]) were 4.77 and 6.54, respectively. Moreover, in the series on Vero, the CCID50 was more than 500 µM.

The compound `C[C@@H]1C(=O)N(C(=O)C2CC2)[C@H]2CCN(C(=O)[C@@H]3CCCN3S(=O)(=O)c3ccc4ccccc4c3)[C@H]12` gave a pKi in series [1] of 7.40. For the same compound, the pIC50 in series [2] is more than 6.72.

For the compound `CC(C)c1ccc(S(=O)(=O)N2CCC[C@H]2C(=O)N2CC[C@H]3[C@H]2[C@H](C)C(=O)N3C(=O)C2CC2)cc1`, the pKi in series [1] was 7.00. In series [2], this compound showed a pIC50 of 6.34.

On to `CC(C)c1ccc(NC(=O)N2CCC[C@H]2C(=O)N2CC[C@H]3[C@H]2[C@H](C)C(=O)N3c2nc3cc(S(=O)(=O)C(F)F)ccc3s2)cc1`, for which the pIC50 in the series on Human betaherpesvirus 5 was 5.66; in series [2], 6.68. Besides, in the series on Vero, the CCID50 is more than 500 µM.

With `COc1ccc(C)c2sc(N3C(=O)[C@@H](C)[C@@H]4[C@@H]3CCN4C(=O)[C@@H]3CCCN3C(=O)Nc3ccc(C(C)C)cc3)nc12`, the pIC50 in the series with Human betaherpesvirus 5 is 4.76; in series [2], 5.96. Further, the half-life in series [3] was more than 24 h. For the same compound, the CCID50 with Vero came out at 126 µM.

Compound `COc1ccc2nc(N3C(=O)[C@@H](C)[C@@H]4[C@@H]3CCN4C(=O)[C@@H]3CCCN3C(=O)Nc3ccc(C(C)C)cc3)sc2c1` had a pKi in series [1] of 7.37. The pIC50 with Human betaherpesvirus 5 was 5.49; in series [2] it was 6.66. This compound came in with a CCID50 in the series on Vero of more than 500 µM.

For the compound `C[C@@H]1C(=O)N(C(=O)C2CC2)[C@H]2CCN(C(=O)[C@@H]3CCCN3S(=O)(=O)Cc3ccccc3)[C@H]12`, in series [2], the pIC50 was 5.68.

`C[C@@H]1C(=O)N(C(=O)C2CC2)[C@H]2CCN(C(=O)[C@@H]3CCCN3C(=O)Nc3ccccc3)[C@H]12` gave a pIC50 in series [2] of 5.85.

Turning to `CC(C)Oc1ccc(NC(=O)N2CCC[C@H]2C(=O)N2CC[C@H]3[C@H]2[C@H](C)C(=O)N3C(=O)C2CC2)cc1`, the pKi in series [1] was 7.74. In addition, the pIC50 in series [2] is 6.74.

`CC(C)c1ccc(C(=O)N2CCC[C@H]2C(=O)N2CC[C@H]3[C@H]2[C@H](C)C(=O)N3C(=O)C2CC2)cc1` gave a pIC50 in series [2] of 6.41.

Consider `CC(C)c1ccc(NC(=O)N2CCC[C@H]2C(=O)N2CC[C@H]3[C@H]2[C@H](C)C(=O)N3c2ccc([N+](=O)[O-])cc2)cc1`, for which the pIC50 with Human betaherpesvirus 5 is less than 4.15; in series [2], 5.06. For the same compound, in series [3], the half-life was more than 24 h. In addition, in the series on Vero, the CCID50 came to 69 µM.

As for `C[C@@H]1C(=O)N(C(=O)C2CC2)[C@H]2CCN(C(=O)[C@@H]3CCCN3C(=O)Nc3ccc(-c4ccc(Cl)cc4)cc3)[C@H]12`, in series [2], the pIC50 is 6.59.

With `CCCOc1ccc(-c2ccc(C(=O)N3CCC[C@H]3C(=O)N3CC[C@H]4[C@H]3[C@H](C)C(=O)N4C(=O)C3CC3)cc2)cc1`, the pKi in series [1] is 7.10.

As for `C[C@@H]1C(=O)N(C(=O)C2CC2)[C@H]2CCN(C(=O)[C@@H]3CCCN3C(=O)Nc3cccc4ccccc34)[C@H]12`, the pIC50 in series [2] is 6.19.

Turning to `CC(C)c1ccccc1NC(=O)N1CCC[C@H]1C(=O)N1CC[C@H]2[C@H]1[C@H](C)C(=O)N2C(=O)C1CC1`, the pIC50 in series [2] was 6.33.

For the compound `C[C@@H]1C(=O)N(C(=O)C2CC2)[C@H]2CCN(C(=O)[C@@H]3CCCN3S(=O)(=O)c3ccc(Cl)cc3)[C@H]12`, in series [2], the pIC50 was 6.08.

Take `C[C@@H]1C(=O)N(C(=O)C2CC2)[C@H]2CCN(C(=O)[C@@H]3CCCN3C(=O)Nc3cccc(C(F)(F)F)c3)[C@H]12`: the pIC50 in series [2] is 6.23.

Take `COc1ccc2nc(N3C(=O)[C@@H](C)[C@@H]4[C@@H]3CCN4C(=O)[C@@H]3CCCN3C(=O)Nc3ccc(C(C)C)cc3)sc2n1`: the figures for the pIC50 (in the series on Human betaherpesvirus 5; in series [2]) were 4.51 and 6.06, respectively. The half-life in series [3] was 9 h. In addition, in the series on Vero, the CCID50 is more than 500 µM.

Take `C[C@@H]1C(=O)N(C(=O)C2CC2)[C@H]2CCN(C(=O)[C@@H]3CCCN3C(=O)c3ccc(-c4ccccc4)cc3)[C@H]12`: in series [1], the pKi is 7.68. Moreover, the pIC50 in series [2] is 6.52.

Compound `C[C@@H]1C(=O)N(C(=O)C2CC2)[C@H]2CCN(C(=O)[C@@H]3CCCN3C(=O)Nc3ccc(Cl)cc3)[C@H]12` gave a pKi in series [1] of 7.42. For the same compound, in series [2], the pIC50 was 6.59.

`C[C@@H]1C(=O)N(C(=O)C2CC2)[C@H]2CCN(C(=O)[C@@H]3CCCN3S(=O)(=O)c3cccc4ccccc34)[C@H]12` showed a pKi in series [1] of 7.22. In series [2], this compound showed a pIC50 of 6.43.

Compound `C[C@@H]1C(=O)N(C(=O)C2CC2)[C@H]2CCN(C(=O)[C@@H]3CCCN3S(=O)(=O)c3ccc(-c4ccc(Cl)cc4)cc3)[C@H]12` showed a pIC50 in series [2] of 6.08.

Compound `CCCOc1ccc(S(=O)(=O)N2CCC[C@H]2C(=O)N2CC[C@H]3[C@H]2[C@H](C)C(=O)N3C(=O)C2CC2)cc1` gave a pKi in series [1] of 7.48. In series [2], this compound showed a pIC50 of 6.64.

`CC(C)c1ccc(NC(=O)N2CCC[C@H]2C(=O)N2CC[C@H]3[C@H]2[C@H](C)C(=O)N3C(=O)C2[C@@H](C)[C@H]2C)cc1` (stereo partly drawn): the pIC50 is less than 4.52 in the series on Human betaherpesvirus 5 and 5.74 in series [2]. For the same compound, the half-life in series [3] is 1.5 h. In addition, the CCID50 with Vero is 375 µM.

For `CCCOc1ccc(-c2ccc(NC(=O)N3CCC[C@H]3C(=O)N3CC[C@H]4[C@H]3[C@H](C)C(=O)N4C(=O)C3CC3)cc2)cc1`, the pKi in series [1] is 8.05.

Take `C[C@@H]1C(=O)N(C(=O)C2CC2)[C@H]2CCN(C(=O)[C@@H]3CCCN3C(=O)Nc3ccc(C(F)(F)F)cc3)[C@H]12`: the pKi in series [1] was 7.82. Moreover, in series [2], the pIC50 is 6.64.

Compound `CCCOc1ccc(-c2ccc(S(=O)(=O)N3CCC[C@H]3C(=O)N3CC[C@H]4[C@H]3[C@H](C)C(=O)N4C(=O)C3CC3)cc2)cc1` had a pKi in series [1] of 7.48.

As to `CC(C)c1ccc(NC(=O)N2CCC[C@H]2C(=O)N2CC[C@H]3[C@H]2[C@H](C)C(=O)N3c2nc3cc(Cl)ccc3s2)cc1`, the pIC50 was 4.31 in the series with Human betaherpesvirus 5 and 6.34 in series [2]. In the series on Vero, this compound registered a CCID50 of 266 µM.

The compound `C[C@@H]1C(=O)N(C(=O)C2CC2)[C@H]2CCN(C(=O)[C@@H]3CCCN3S(=O)(=O)c3ccccc3)[C@H]12` had a pIC50 in series [2] of 5.74.

In series [2], `C[C@@H]1C(=O)N(C(=O)C2CC2)[C@H]2CCN(C(=O)[C@@H]3CCCN3C(=O)c3ccc(-c4ccc(Cl)cc4)cc3)[C@H]12` had a pIC50 of 5.85.

As for `CCCOc1ccc(C(=O)N2CCC[C@H]2C(=O)N2CC[C@H]3[C@H]2[C@H](C)C(=O)N3C(=O)C2CC2)cc1`, in series [1], the pKi was 7.10. Further, in series [2], the pIC50 is 6.27.
